Patent US20160355530A1, “HEPATITIS C INHIBITORS AND USES THEREOF” (AbbVie Inc., priority 2010, published 2016)
Where two headings read alike, the source gives them in different places.

Experiments:
[1] = target: T1, HCV NS5B polymerase 1a-H77 (Hepatitis C virus genotype 1a, UniProt P27958); assay: biochemical; set-up: species or system HCV genotype 1a; conditions: enzyme, strain 1a H77; read-out: HCV Polymerase Strain 1a H77 IC50
T1 construct: six-histidine tag; made in house; host or cells: E. coli
T1 sequence (P27958 2421-2990): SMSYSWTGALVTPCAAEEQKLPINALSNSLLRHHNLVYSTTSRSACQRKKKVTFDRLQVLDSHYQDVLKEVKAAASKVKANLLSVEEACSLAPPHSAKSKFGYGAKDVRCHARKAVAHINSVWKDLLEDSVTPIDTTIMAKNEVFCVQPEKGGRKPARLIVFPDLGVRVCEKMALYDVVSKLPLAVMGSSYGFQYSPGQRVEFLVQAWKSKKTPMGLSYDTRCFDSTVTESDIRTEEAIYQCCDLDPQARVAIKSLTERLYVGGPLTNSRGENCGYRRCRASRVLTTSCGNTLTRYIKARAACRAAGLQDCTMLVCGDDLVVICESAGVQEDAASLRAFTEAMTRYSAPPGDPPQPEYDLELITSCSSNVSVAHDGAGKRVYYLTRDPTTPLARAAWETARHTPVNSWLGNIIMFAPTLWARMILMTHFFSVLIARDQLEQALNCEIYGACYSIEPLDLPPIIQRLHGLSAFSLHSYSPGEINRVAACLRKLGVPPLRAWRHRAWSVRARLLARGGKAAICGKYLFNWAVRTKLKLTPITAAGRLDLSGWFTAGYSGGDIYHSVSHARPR
How it was run: (§1)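 Recombinant NS5B (residues 1–570, His-tagged, E. coli-expressed) copied 5 nM of a 2.1 kb HCV 1b negative-strand 3′-end RNA template with 20 μM CTP, 20 μM ATP and 0.284 μM [3H]UTP for 3 h at 30 °C. Spermine-precipitated RNA was filter-captured and counted, and IC50 was fitted by nonlinear regression.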

[2] = target: T2, HCV NS5B polymerase 1a-H77-C316Y (Hepatitis C virus genotype 1a, UniProt P27958, C2736Y); assay: biochemical; set-up: species or system HCV genotype 1a
T2 construct: six-histidine tag; made in house; host or cells: E. coli
T2 sequence (P27958 2421-2990 C2736Y): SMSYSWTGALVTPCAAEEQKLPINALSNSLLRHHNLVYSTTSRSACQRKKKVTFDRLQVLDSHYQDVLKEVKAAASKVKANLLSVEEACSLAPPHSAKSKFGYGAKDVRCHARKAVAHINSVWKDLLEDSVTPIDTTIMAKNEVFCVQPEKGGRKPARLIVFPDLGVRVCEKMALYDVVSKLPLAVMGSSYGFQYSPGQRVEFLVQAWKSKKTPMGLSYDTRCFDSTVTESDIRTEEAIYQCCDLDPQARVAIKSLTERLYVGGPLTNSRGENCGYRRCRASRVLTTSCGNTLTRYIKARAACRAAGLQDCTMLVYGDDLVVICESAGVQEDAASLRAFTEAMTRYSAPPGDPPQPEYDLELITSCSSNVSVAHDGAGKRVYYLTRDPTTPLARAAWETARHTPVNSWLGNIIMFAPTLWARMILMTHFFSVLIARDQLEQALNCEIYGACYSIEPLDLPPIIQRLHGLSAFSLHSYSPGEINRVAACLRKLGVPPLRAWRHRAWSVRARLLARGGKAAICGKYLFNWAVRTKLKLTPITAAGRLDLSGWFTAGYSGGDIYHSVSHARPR
How it was run: as §1

[3] = tested on: HCV NS5B polymerase 1a-H77-C316Y; assay: biochemical; set-up: species or system HCV genotype 1a; conditions: ratio of enzyme IC50s, 1a H77-C316Y / 1a H77
How it was run: as §1

[4] = target: T3, HCV NS5B polymerase 1b BK strain (Hepatitis C virus genotype 1b, UniProt P26663); assay: HCV NS5B polymerase enzymatic inhibition assay, strain 1b BK; assay type: biochemical; conditions: enzyme, strain 1b BK; read-out: HCV Polymerase Strain 1b BK IC50
T3 construct: six-histidine tag; made in house; host or cells: E. coli
T3 sequence (P26663 2420-2989): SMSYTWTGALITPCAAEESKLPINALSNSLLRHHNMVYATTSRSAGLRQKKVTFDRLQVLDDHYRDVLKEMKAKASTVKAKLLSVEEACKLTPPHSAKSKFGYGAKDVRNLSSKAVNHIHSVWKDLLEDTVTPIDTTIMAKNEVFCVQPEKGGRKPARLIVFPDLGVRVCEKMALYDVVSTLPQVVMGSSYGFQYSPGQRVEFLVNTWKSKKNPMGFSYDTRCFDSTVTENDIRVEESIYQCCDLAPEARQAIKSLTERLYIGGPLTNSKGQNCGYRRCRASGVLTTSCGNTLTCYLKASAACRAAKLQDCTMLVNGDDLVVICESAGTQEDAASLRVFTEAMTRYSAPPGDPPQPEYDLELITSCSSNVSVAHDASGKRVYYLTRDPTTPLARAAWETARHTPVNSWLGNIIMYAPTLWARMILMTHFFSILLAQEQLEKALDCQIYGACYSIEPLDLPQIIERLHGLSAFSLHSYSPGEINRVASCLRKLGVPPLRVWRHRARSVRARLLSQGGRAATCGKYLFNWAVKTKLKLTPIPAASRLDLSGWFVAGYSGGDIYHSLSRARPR
How it was run: as §1

[5] = tested on: HCV 1a-H77 subgenomic replicon; assay: microbe, parasite or virus in culture; assay type: cell-based, HCV genotype 1a; conditions: Hepatitis C virus, stable replicon
[6] = tested on: HCV 1b-BB7 subgenomic replicon; assay: microbe, parasite or virus in culture; assay type: cell-based, HCV genotype 1b; conditions: Hepatitis C virus, stable replicon
[7] = tested on: chimeric replicon with 2a-J6CF-derived NS5B; assay: microbe, parasite or virus in culture; assay type: cell-based, HCV genotype 2a; conditions: Hepatitis C virus, read-out: 2a chimera 5% FBS EC50
[8] = tested on: chimeric replicon with genotype 2b NS5B; assay: microbe, parasite or virus in culture; assay type: cell-based, HCV genotype 2b; conditions: Hepatitis C virus, read-out: 2b chimera 5% FBS EC50
[9] = tested on: chimeric replicon with genotype 3a NS5B; assay: microbe, parasite or virus in culture; assay type: cell-based, HCV genotype 3a; conditions: Hepatitis C virus, read-out: 3a chimera 5% FBS EC50
[10] = tested on: chimeric replicon with genotype 4a NS5B; assay: microbe, parasite or virus in culture; assay type: cell-based, HCV genotype 4a; conditions: Hepatitis C virus, read-out: 4a chimera 5% FBS EC50
[11] = 5% FBS, absence of human plasma, read-out: Stable Replicon 1a H77 5% FBS EC50
[12] = strain 1a H77, 5% FBS + 40% human plasma, read-out: 1a H77 5% FBS + 40% Human Plasma EC50
[13] = strain 1a H77, 5% FBS, no human plasma, read-out: 1a H77 5% FBS EC50
[14] = strain 1a H77, 5% FBS, read-out: 1a H77 5% FBS EC50
[15] = strain 1b BB7, 5% FBS + 40% human plasma, read-out: 1b BB7 5% FBS + 40% Human Plasma EC50
[16] = strain 1b BB7, 5% FBS, no human plasma, read-out: 1b BB7 5% FBS EC50
[17] = strain 1b BB7, 5% FBS, read-out: 1b BB7 5% FBS EC50

Compound | IC50 [1] | IC50 [2] | C316Y/1a Fold Resistance [3] | IC50 [4] | EC50 [5, 11] | EC50 [5, 12] | EC50 [5, 13] | EC50 [5, 14] | EC50 [6, 15] | EC50 [6, 16] | EC50 [6, 17] | EC50 [7] | EC50 [8] | EC50 [9] | EC50 [10]
CN(C)CCCN(c1cc2oc(-c3ccc(F)cc3)c(C3=NOCCN3)c2cc1C1CC1)S(C)(=O)=O [Example 127, N-[5-cyclopropyl-3-(5,6-dihydro-4H-1,2,4-oxadiazin-3-yl)-2-(4-fluorophenyl)-1-benzofuran-6-yl]-N-[3-(dimethylamino)propyl]methanesulfonamide] | 25.4 nM | 663 nM | 26 fold | 302 nM | 64.8 nM | 123 nM | 64.8 nM | 64.8 nM | 90 nM | 21 nM | 21 nM | 344 nM | 309 nM | 57 nM | 814 nM
CS(=O)(=O)N(CCN1CCCC1)c1cc2oc(-c3ccc(F)cc3)c(C3=NOCCN3)c2cc1C1CC1 [Example 128, N-[5-cyclopropyl-3-(5,6-dihydro-4H-1,2,4-oxadiazin-3-yl)-2-(4-fluorophenyl)-1-benzofuran-6-yl]-N-[2-(pyrrolidin-1-yl)ethyl]methanesulfonamide] | 45.6 nM | 995 nM | 22 fold | 667 nM | 161 nM | 383 nM | 161 nM | 161 nM | 268 nM | 44 nM | 44 nM | 699 nM | 839 nM | 216 nM | > 1000 nM
CCN(CC)CCN(c1cc2oc(-c3ccc(F)cc3)c(C3=NOCCN3)c2cc1C1CC1)S(C)(=O)=O [Example 129, N-[5-cyclopropyl-3-(5,6-dihydro-4H-1,2,4-oxadiazin-3-yl)-2-(4-fluorophenyl)-1-benzofuran-6-yl]-N-[2-(diethylamino)ethyl]methanesulfonamide] | 24 nM | 632 nM | 26 fold | 466 nM | 80.9 nM | 300 nM | 80.9 nM | 80.9 nM | 163 nM | 38 nM | 38 nM | 625 nM | 625 nM | 149 nM | > 1000 nM
CCN(CC)CCCN(c1cc2oc(-c3ccc(F)cc3)c(C3=NOCCN3)c2cc1C1CC1)S(C)(=O)=O [Example 131, N-[5-cyclopropyl-3-(5,6-dihydro-4H-1,2,4-oxadiazin-3-yl)-2-(4-fluorophenyl)-1-benzofuran-6-yl]-N-[3-(diethylamino)propyl]methanesulfonamide] | 30.2 nM | 876 nM | 29 fold | 171 nM | 122 nM | 350 nM | 122 nM | 122 nM | 102 nM | 26 nM | 26 nM | 380 nM | 446 nM | 131 nM | 782 nM
CS(=O)(=O)N(CCCN1CCCC1)c1cc2oc(-c3ccc(F)cc3)c(C3=NOCCN3)c2cc1C1CC1 [Example 132, N-[5-cyclopropyl-3-(5,6-dihydro-4H-1,2,4-oxadiazin-3-yl)-2-(4-fluorophenyl)-1-benzofuran-6-yl]-N-[3-(pyrrolidin-1-yl)propyl]methanesulfonamide] | 22 nM | 934 nM | 42 fold | 246 nM | 142 nM | 313 nM | 142 nM | 142 nM | 122 nM | 40 nM | 40 nM | 244 nM | 428 nM | 93 nM | > 1000 nM
CS(=O)(=O)N(CCCC#N)c1cc2oc(-c3ccc(F)cc3)c(C3=NOCCN3)c2cc1C1CC1 [Example 133, N-(3-cyanopropyl)-N-[5-cyclopropyl-3-(5,6-dihydro-4H-1,2,4-oxadiazin-3-yl)-2-(4-fluorophenyl)-1-benzofuran-6-yl]methanesulfonamide] | 8 nM | 50 nM | 6 fold | 46 nM | 6.3 nM | 37 nM | 6.3 nM | 6.32 nM | 55 nM | 6 nM | 6 nM | 92 nM | 82 nM | 11 nM | 75 nM
CS(=O)(=O)N(CCCCCO)c1cc2oc(-c3ccc(F)cc3)c(C3=NOCCN3)c2cc1C1CC1 [Example 134, N-[5-cyclopropyl-3-(5,6-dihydro-4H-1,2,4-oxadiazin-3-yl)-2-(4-fluorophenyl)-1-benzofuran-6-yl]-N-(5-hydroxypentyl)methanesulfonamide] | 8 nM | 42 nM | 5 fold | 82 nM | 6.5 nM | 69 nM | 6.5 nM | 6.48 nM | 93 nM | 9 nM | 9 nM | 84 nM | 69 nM | 20 nM | 53 nM
C[S+]([O-])CCN(c1cc2oc(-c3ccc(F)cc3)c(C3=NOCCN3)c2cc1C1CC1)S(C)(=O)=O (stereo not drawn) [Example 138, N-[5-cyclopropyl-3-(5,6-dihydro-4H-1,2,4-oxadiazin-3-yl)-2-(4-fluorophenyl)-1-benzofuran-6-yl]-N-[2-(methylsulfinyl)ethyl]methanesulfonamide] | 9.8 nM | 232 nM | 24 fold | 49 nM | 46.5 nM | 183 nM | 46.5 nM | 46.5 nM | 270 nM | 36 nM | 36 nM | 1000 nM | 1000 nM | 102 nM | 524 nM
C[S+]([O-])CCCN(c1cc2oc(-c3ccc(F)cc3)c(C3=NOCCN3)c2cc1C1CC1)S(C)(=O)=O (stereo not drawn) [Example 139, N-[5-cyclopropyl-3-(5,6-dihydro-4H-1,2,4-oxadiazin-3-yl)-2-(4-fluorophenyl)-1-benzofuran-6-yl]-N-[3-(methylsulfinyl)propyl]methanesulfonamide] | 7.7 nM | 89 nM | 11 fold | 9 nM | 59.2 nM | 648 nM | 59.2 nM | 59.2 nM | 948 nM | 68 nM | 68 nM | 1000 nM | 787 nM | 102 nM | 572 nM
CS(=O)(=O)CCCN(c1cc2oc(-c3ccc(F)cc3)c(C3=NOCCN3)c2cc1C1CC1)S(C)(=O)=O [Example 140, N-[5-cyclopropyl-3-(5,6-dihydro-4H-1,2,4-oxadiazin-3-yl)-2-(4-fluorophenyl)-1-benzofuran-6-yl]-N-[3-(methylsulfonyl)propyl]methanesulfonamide] | 5 nM | 38 nM | 8 fold | 42 nM | 14.5 nM | 122 nM | 14.5 nM | 14.5 nM | 150 nM | 11 nM | 11 nM | 274 nM | 211 nM | 44 nM | 189 nM
CC[S+]([O-])CCN(c1cc2oc(-c3ccc(F)cc3)c(C3=NOCCN3)c2cc1C1CC1)S(C)(=O)=O (stereo not drawn) [Example 141, N-[5-cyclopropyl-3-(5,6-dihydro-4H-1,2,4-oxadiazin-3-yl)-2-(4-fluorophenyl)-1-benzofuran-6-yl]-N-[2-(ethylsulfinyl)ethyl]methanesulfonamide] | 15 nM | 209 nM | 14 fold | 167 nM | 38.5 nM | 275 nM | 38.5 nM | 38.5 nM | 296 nM | 31 nM | 31 nM | 623 nM | 1000 nM | 53 nM | 621 nM
